According to patent US20070213354A1, “Compositions and Methods for the Treatment of Multiple Sclerosis” (AmpliMed Corporation, priority 2006, published 2007):
pIC50: −log10 of the molar value.

Columns and labels:
L1210 sensitive = conditions: murine leukemia L1210 sensitive to standard cytotoxic agents; MTT, continuous exposure; cited from earlier work
acute monophasic EAE [1] = assay: Acute monophasic EAE, drug administration beginning on day 11 post immunization; format: in vivo, C57/BL6 mice; conditions: for Mean Clinical Score / Day of Onset / Incidence: 32 day observation; for Mean Clinical Score: mice that had evidence of disease; for Max. Clinical Score: scale 0 to 5
Excerpt: (§1) An acute monophasic form of EAE, induced by the administration of MOG, mimics the progressive clinical patterns of MS seen in human patients and can provide an opportunity to investigate a therapy's ability to prevent progression to symptomatic disease, to prevent or reduce the disability that would otherwise be caused by disease progression, or to treat one or more clinical symptoms of MS. The induction of the acute monophasic form of EAE in C57/BL6 mice can be achieved as described in Gaupp et al., Am J Pathol. 162(1): 139-150 (2003). Similarly, a relapsing-remitting form of EAE, induced by the administration of PLP, mimics the more common relapsing-remitting form of MS seen in humans and can provide an opportunity to investigate potential therapies to reduce the frequency, severity, or duration of a disease relapse, to otherwise prevent disability caused by disease progression, or to relieve one or more clinical symptoms of MS in human patients. The induction of the relapsing-remitting form of EAE in SJL/J mice can be achieved as described in Fridkis-Hareli et al., J Clin Invest. 109(12): 1635-1643 (2002).
(§2) Acute monophasic EAE was induced in C57/BL6 mice by subcutaneous flank and tail base injections of 200 μg of MOG in complete Freund's adjuvent containing 500 μg of heat-inactivated mycobacterium tuberculosis on day 0, supplemented by intravenous injections of 200 ng of pertussis toxin on day 2.
With reference now to FIG. 4, five groups of mice (each group containing 5 or 6 individuals), immunized for acute monophasic EAE as described hereinbefore, were treated with either ethonafide (AMP) or mitoxantrone at a dose of 0.5 mg/kg or 1.0 mg/kg beginning on day 11 following immunization, for seven days, or were left untreated to be used as a control. Each drug was administered intraperitoneally in phosphate buffered saline (untreated mice received i.p. administrations of the PBS vehicle). The mice were observed daily for clinical signs of disease and were scored as indicated hereinbefore on a clinical scale from 0 to 5. The incidence of disease in the immunized mice, the day of disease onset, the maximum clinical score, and the mean clinical score over a 32 day observation period were determined, and the results are shown in Table 3.

neonatal rat myocytes = conditions: 1 hour drug concentration that reduces ATP/protein ratio to 50% of untreated control myocytes; read-out: IC50 Cardiotox; cited from earlier work
L1210 resistant = conditions: murine leukemia L1210 resistant, P-glycoprotein producing; MTT, continuous exposure; cited from earlier work
acute monophasic EAE [2] = assay: Acute monophasic EAE, drug administration beginning with immunization; format: in vivo, C57/BL6 mice; conditions: for Day of Onset / Incidence / Mean Clinical Score: 30 day observation; for Max. Clinical Score: scale 0 to 5
Excerpt: as §1, §2
With reference first to FIGS. 1-3, beginning on the day of immunization for acute monophasic EAE, nine groups of mice (each group containing 5 or 6 individuals) were treated with either ethonafide (AMP; a compound of Formula (II) wherein the dibenzisoquinoline ring structure is substituted at position 6 with —OCH2CH3) or mitoxantrone at a dose of 0.125 mg/kg, 0.25 mg/kg, or 0.5 mg/kg daily for seven days, or were left untreated to be used as a control at each respective dose level. Each drug was administered intraperitoneally in phosphate buffered saline (untreated mice received i.p. administrations of the PBS vehicle). The mice were observed daily for clinical signs of disease, and were scored (by multiple investigators) on an arbitrary scale from 0 to 5 in increments of 0.5 according to the following parameters: 0—no clinical signs of disease; 1—flaccid tail; 2—hind limb weakness or abnormal gait; 3—complete hind paralysis; 4—complete hind paralysis with forelimb weakness or paralysis; and 5-moribund or deceased. The incidence of disease in the immunized mice, the day of disease onset, the maximum clinical score, and the mean clinical score over a 30 day observation period were determined, and the results are shown in Table 2.

[3] = 0.5 mg/kg i.p. for seven days beginning on day 11
[4] = 0.5 mg/kg i.p. for seven days beginning on day 11 following immunization
[5] = 1.0 mg/kg i.p. for seven days beginning on day 11
[6] = 1.0 mg/kg i.p. for seven days beginning on day 11 following immunization
[7] = 0.125 mg/kg i.p. daily for seven days from day of immunization
[8] = 0.125 mg/kg i.p. daily for seven days from day of immunization, mice that had evidence of disease
[9] = 0.25 mg/kg i.p. daily for seven days from day of immunization
[10] = 0.25 mg/kg i.p. daily for seven days from day of immunization, mice that had evidence of disease
[11] = 0.5 mg/kg i.p. daily for seven days from day of immunization

CCOc1ccc2c3c(c4ccccc4cc13)C(=O)N(CCN(C)C)C2=O [*6-OC2H5]
pIC50 (L1210 sensitive): 8.10
Mean Clinical Score (acute monophasic EAE [1]; [3]): 1.86 ± 0.35
Day of Onset (acute monophasic EAE [1]; [4]): 11.8 ± 0.72
Incidence (acute monophasic EAE [1]; [4]): 100%
Max. Clinical Score (acute monophasic EAE [1]; [4]): 3.9 ± 0.26
Mean Clinical Score (acute monophasic EAE [1]; [5]): 1.17 ± 0.24
Day of Onset (acute monophasic EAE [1]; [6]): 12.3 ± 0.55
Incidence (acute monophasic EAE [1]; [6]): 60%
Max. Clinical Score (acute monophasic EAE [1]; [6]): 3.7 ± 0.22
effect in the treatment of clinical symptoms induced in the EAE mouse model (acute monophasic EAE [1]; 0.5 and 1.0 mg/kg beginning on day 11, FIG. 4, Table 3): dose dependent effect
pIC50 (neonatal rat myocytes): 5.75
pIC50 (L1210 resistant): 8.15
Day of Onset (acute monophasic EAE [2]; [7]): 11.5 ± 0.88
Incidence (acute monophasic EAE [2]; [7]): 100%
Mean Clinical Score (acute monophasic EAE [2]; [8]): 1.98 ± 0.48
Max. Clinical Score (acute monophasic EAE [2]; [7]): 3.5 ± 0.22
Day of Onset (acute monophasic EAE [2]; [9]): 17.8 ± 3.4
Incidence (acute monophasic EAE [2]; [9]): 100%
Mean Clinical Score (acute monophasic EAE [2]; [10]): 0.88 ± 0.38
Max. Clinical Score (acute monophasic EAE [2]; [9]): 1.8 ± 1.16
Incidence (acute monophasic EAE [2]; [11]): 0%
Mean Clinical Score (acute monophasic EAE [2]; [11]): 0
Max. Clinical Score (acute monophasic EAE [2]; [11]): 0
effect in delaying or preventing the onset of clinically symptomatic progressive disease and the disability caused thereby (acute monophasic EAE [2]; 0.125, 0.25, 0.5 mg/kg from day of immunization, FIGS. 1-3, Table 2): dose dependent effect

COc1ccc2c3c4c(cccc4cc2c1)C(=O)N(CCN(C)C)C3=O [*9-OCH3]
pIC50 (L1210 sensitive): 7.27
pIC50 (neonatal rat myocytes): > 5.59
pIC50 (L1210 resistant): 7.27

CN(C)CCN1C(=O)c2cccc3cc4cc(O)ccc4c(c23)C1=O [*9-OH]
pIC50 (L1210 sensitive): 8.30
pIC50 (neonatal rat myocytes): 6.39
pIC50 (L1210 resistant): 8.15

Cc1ccc2cc3cccc4c3c(c2c1)C(=O)N(CCN(C)C)C4=O [*10-CH3]
pIC50 (L1210 sensitive): 7.39
pIC50 (neonatal rat myocytes): 6.00
pIC50 (L1210 resistant): 7.27

CN(C)CCN1C(=O)c2cccc3cc4ccc(C#N)cc4c(c23)C1=O [*10-CN]
pIC50 (L1210 sensitive): 7.82
pIC50 (neonatal rat myocytes): 6.98
pIC50 (L1210 resistant): 7.89

CN(C)CCN1C(=O)c2cccc3cc4ccc(Cl)cc4c(c23)C1=O [*10-Cl]
pIC50 (L1210 sensitive): 8.30
pIC50 (neonatal rat myocytes): 6.11
pIC50 (L1210 resistant): 8.10

CN(C)CCN1C(=O)c2cccc3cc4ccc(I)cc4c(c23)C1=O [*10-I]
pIC50 (L1210 sensitive): 6.51
pIC50 (neonatal rat myocytes): 5.32
pIC50 (L1210 resistant): 7.28

CN(C)CCN1C(=O)c2cccc3cc4ccc(N)cc4c(c23)C1=O [*10-NH2]
pIC50 (L1210 sensitive): 8.52
pIC50 (neonatal rat myocytes): 6.03
pIC50 (L1210 resistant): 8.52

CN(C)CCN1C(=O)c2cccc3cc4ccc(NC(=O)C(C)(C)C)cc4c(c23)C1=O [*10-NHCOC(CH3)3]
pIC50 (L1210 sensitive): 6.70
pIC50 (neonatal rat myocytes): 4.96
pIC50 (L1210 resistant): 6.70

CC(=O)Nc1ccc2cc3cccc4c3c(c2c1)C(=O)N(CCN(C)C)C4=O [*10-NHCOCH3]
pIC50 (L1210 sensitive): 7.31
pIC50 (neonatal rat myocytes): 5.11
pIC50 (L1210 resistant): 6.66

CN(C)CCN1C(=O)c2cccc3cc4ccc([N+](=O)[O-])cc4c(c23)C1=O [*10-NO2]
pIC50 (L1210 sensitive): 7.60
pIC50 (neonatal rat myocytes): 6.10
pIC50 (L1210 resistant): 7.60

CCOc1ccc2cc3cccc4c3c(c2c1)C(=O)N(CCN(C)C)C4=O [*10-OC2H5]
pIC50 (L1210 sensitive): 7.60
pIC50 (neonatal rat myocytes): 4.95
pIC50 (L1210 resistant): 7.30

COc1ccc2cc3cccc4c3c(c2c1)C(=O)N(CCN(C)C)C4=O [*10-OCH3]
pIC50 (L1210 sensitive): 7.68
pIC50 (neonatal rat myocytes): 5.04
pIC50 (L1210 resistant): 7.28

CN(C)CCN1C(=O)c2cccc3cc4ccc(O)cc4c(c23)C1=O [*10-OH]
pIC50 (L1210 sensitive): 6.72
pIC50 (neonatal rat myocytes): < 4.57
pIC50 (L1210 resistant): 6.27

CN(C)CCN1C(=O)c2cccc3cc4cccc(Cl)c4c(c23)C1=O [*11-Cl]
pIC50 (L1210 sensitive): 5.75
pIC50 (neonatal rat myocytes): 5.08
pIC50 (L1210 resistant): 6.21

CN(C)CCN1C(=O)c2cccc3cc4cccc(N)c4c(c23)C1=O [*11-NH2]
pIC50 (L1210 sensitive): 6.17
pIC50 (neonatal rat myocytes): 4.57
pIC50 (L1210 resistant): 6.17

CC(=O)Nc1cccc2cc3cccc4c3c(c12)C(=O)N(CCN(C)C)C4=O [*11-NHCOCH3]
pIC50 (L1210 sensitive): 6.61
pIC50 (neonatal rat myocytes): < 4.65
pIC50 (L1210 resistant): 5.61

CN(C)CCN1C(=O)c2cccc3cc4cccc([N+](=O)[O-])c4c(c23)C1=O [*11-NO2]
pIC50 (L1210 sensitive): 7.64
pIC50 (neonatal rat myocytes): 5.06
pIC50 (L1210 resistant): 7.30

CN(C)CCN1C(=O)c2cccc3cc4cccc(O)c4c(c23)C1=O [*11-OH]
pIC50 (L1210 sensitive): 6.72
pIC50 (neonatal rat myocytes): 4.81
pIC50 (L1210 resistant): 6.72

COc1cccc2c1C(=O)c1c(O)c3c(c(O)c1C2=O)C[C@@](O)(C(=O)CO)C[C@@H]3O[C@H]1C[C@H](N)[C@H](O)[C@H](C)O1 [Doxorubicin, reference compound]
pIC50 (L1210 sensitive): 7.46
pIC50 (neonatal rat myocytes): 4.99
pIC50 (L1210 resistant): 5.41

O=C1c2c(O)ccc(O)c2C(=O)c2c(NCCNCCO)ccc(NCCNCCO)c21 [Mitoxantrone, reference compound]
pIC50 (L1210 sensitive): 8.00
Mean Clinical Score (acute monophasic EAE [1]; [3]): 0.59 ± 1.67
Day of Onset (acute monophasic EAE [1]; [4]): 12.2 ± 0.68
Incidence (acute monophasic EAE [1]; [4]): 100%
Max. Clinical Score (acute monophasic EAE [1]; [4]): 2.4 ± 0.36
Mean Clinical Score (acute monophasic EAE [1]; [5]): 0.51 ± 0.21
Day of Onset (acute monophasic EAE [1]; [6]): 13.3 ± 0.55
Incidence (acute monophasic EAE [1]; [6]): 60%
Max. Clinical Score (acute monophasic EAE [1]; [6]): 2.8 ± 0.36
pIC50 (neonatal rat myocytes): 5.11
pIC50 (L1210 resistant): 7.41
Day of Onset (acute monophasic EAE [2]; [7]): 12.5 ± 0.67
Incidence (acute monophasic EAE [2]; [7]): 100%
Mean Clinical Score (acute monophasic EAE [2]; [8]): 1.63 ± 0.59
Max. Clinical Score (acute monophasic EAE [2]; [7]): 3.1 ± 0.33
Incidence (acute monophasic EAE [2]; [9]): 40%
Mean Clinical Score (acute monophasic EAE [2]; [10]): 0.21 ± 0.07
Incidence (acute monophasic EAE [2]; [11]): 0%
Mean Clinical Score (acute monophasic EAE [2]; [11]): 0
Max. Clinical Score (acute monophasic EAE [2]; [11]): 0
